The compounds below were run against T1, CCKB receptor (Mus musculus, UniProt P56481) (assay: CCKB receptor radioligand binding assay in mouse cortical membranes). Conditions: [125I]-CCK8(S) 200 pM, 150 min at 21±3°, read-out: CCKB pKi (converted).
T1 construct: The whole brains from male mice (CD1 22-25 g; Charles River) were removed; from tissue; host or cells: cerebral cortex membranes of male CD1 mice
T1 sequence (P56481 1-453): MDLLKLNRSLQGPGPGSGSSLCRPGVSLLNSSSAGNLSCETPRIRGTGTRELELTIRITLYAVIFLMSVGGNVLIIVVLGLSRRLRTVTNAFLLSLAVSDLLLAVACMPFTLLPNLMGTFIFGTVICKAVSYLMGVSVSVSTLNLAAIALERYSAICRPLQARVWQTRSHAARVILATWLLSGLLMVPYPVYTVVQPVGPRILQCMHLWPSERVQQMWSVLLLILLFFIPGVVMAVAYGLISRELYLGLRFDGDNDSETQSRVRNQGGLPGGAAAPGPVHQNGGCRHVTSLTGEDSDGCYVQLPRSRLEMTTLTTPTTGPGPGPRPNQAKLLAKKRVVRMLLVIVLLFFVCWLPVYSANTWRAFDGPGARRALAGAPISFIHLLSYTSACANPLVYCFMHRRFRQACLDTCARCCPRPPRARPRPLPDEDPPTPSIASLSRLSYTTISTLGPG
Description: The compounds of the examples were tested for binding at the CCKB receptor in mouse cortical membranes by means of a radioligand binding assay. The procedure was as follows:
The whole brains from male mice (CD1 22-25 g; Charles River) were removed and placed in ice-cold buffer (pH 7.2 @ 21±3°) of the following composition (mM); 10 HEPES, 130 NaCl, 4.7 KCl, 5 MgCl2, 1 EDTA and containing 0.25 gl^−1 bacitracin. The cortex was dissected, weighed and homogenised in 40 ml ice-cold buffer using a Teflon-in-glass homogeniser. The homogenate was centrifuged at 39800 g for 20 min […], the supernatant discarded and the pellet resuspended by homogenisation in fresh buffer. The homogenate was recentrifuged (39800 g, 20 min @ 4°) and the final pellet was resuspended in HEPES buffer to give a tissue concentration of 20 mg ml^−1 (original wet weight).
The assay was terminated by rapid filtration through pre-soaked Whatman GF/B filters using a Brandell Cell Harvester. The filters were washed (3×3 ml) with ice-cold 50 mM Tris-HCl (pH 7.4 @ 4° C.) and bound radioactivity determined by counting (1 min) in a gamma-counter.

Structure (SMILES)	Ki [nM]
Cc1ccccc1-c1nc(C(=O)Nc2cccc(C(=O)O)c2)c(CCC23CC4CC(CC(C4)C2)C3)o1 [Example 120, 3-{[5-(2-Adamanatan-1-yl-ethyl)-2-o-tolyl-oxazole-4-carbonyl]-amino}-benzoic Acid]	1550
Cc1ccccc1-c1nc(C(=O)Nc2cc(C(=O)O)ccc2F)c(CCC23CC4CC(CC(C4)C2)C3)[nH]1 [Example 238, 3-{[5-(2-Adamantan-1-yl-ethyl)-2-o-tolyl-1H-imidazole-4-carbonyl]-amino}-4-fluoro-benzoic Acid]	5890
O=C(Nc1cc(-c2nnn[nH]2)cc(-c2nnn[nH]2)c1)c1cc(-c2ccccc2)[nH]c1CCC12CC3CC(CC(C3)C1)C2 [Example 18, 2-(2-Adamantan-1-yl-ethyl)-5-phenyl-1H-pyrrole-3-carboxylic Acid [3,5-bis-(1H-tetrazol-5-yl)-phenyl]-amide]	229
Cc1ccc(NC(=O)c2nc(-c3c(Cl)cccc3Cl)[nH]c2CCC23CC4CC(CC(C4)C2)C3)cc1C(=O)O [Example 149, 5-{[5-(2-Adamantan-1-yl-ethyl)-2-(2,6-dichlorophenyl)-1H-imidazole-4-carbonyl]-amino}-2-methyl-benzoic Acid]	5.37
O=C(O)c1cccc(NC(=O)c2[nH]c(-c3ccc4ccccc4c3)nc2CC2CCCCCC2)c1 [Example 21, 3-[(5-Cycloheptylmethyl-2-naphthalen-2-yl-1H-imidazole-4-carbonyl)-amino]-benzoic Acid]	813
O=C(O)c1cc(NC(=O)c2nc(-c3ccccc3)[nH]c2CCC2CCCCCC2)cc(C(=O)O)c1 [Example 39, 5-{[5-(2-Cycloheptyl-ethyl)-2-phenyl-1H-imidazole-4-carbonyl]-amino}-isophthalic Acid]	2040
Cc1ccccc1-c1nc(C(=O)N2CCC(C(=O)O)CC2)c(CCC23CC4CC(CC(C4)C2)C3)[nH]1 (racemic) [Example 94, (±)-1-[5-(2-Adamantan-1-yl-ethyl)-2-o-tolyl-1H-imidazole-4-carbonyl]-piperidine-4-carboxylic Acid]	5370
O=C(O)c1cc(NC(=O)c2nc(CCc3ccccc3)[nH]c2CC2CCCCCC2)cc(C(=O)O)c1 [Example 27, 5-[(5-Cycloheptylmethyl-2-(2-phenyl-ethyl)-1H-imidazole-4-carbonyl)-amino]-isophthalic Acid]	3550
Cc1cc(NC(=O)c2nc(-c3ccccc3C)[nH]c2CCC23CC4CC(CC(C4)C2)C3)cc(C(=O)O)c1 [Example 247, 3-{[5-(2-Adamantan-1-yl-ethyl)-2-o-tolyl-1H-imidazole-4-carbonyl]-amino}-5-methyl-benzoic Acid]	302
O=C(Nc1cc(-c2nnn[nH]2)cc(-c2nnn[nH]2)c1)c1cc(-c2ccccc2)[nH]c1CC12CC3CC(CC(C3)C1)C2 [Example 2, 2-Adamantan-1-ylmethyl-5-phenyl-1H-pyrrole-3-carboxylic Acid [3,5-bis-(1H-tetrazol-5-yl)-phenyl]-amide]	49
O=C(O)c1cc(NC(=O)c2nc(-c3ccc4ccccc4c3)[nH]c2CCC23CC4CC(CC(C4)C2)C3)cc(C(=O)O)c1 [Example 44, 5-{[5-(2-Adamantan-1-yl-ethyl)-2-naphthalene-2-yl-1H-imidazole-4-carbonyl]-amino}-isophthalic Acid]	120
O=C(O)c1cccc(NC(=O)c2nc(-c3ccc(Cl)c(Cl)c3)[nH]c2CCC23CC4CC(CC(C4)C2)C3)c1 [Example 68, 3-{[5-(2-Adamantan-1-yl-ethyl)-2-(3,4-dichloro-phenyl)-1H-imidazole-4-carbonyl]-amino}-benzoic Acid]	468
O=C(O)c1cc(NC(=O)c2ncn(Cc3ccccc3)c2CC2CCCCCC2)cc(C(=O)O)c1 [Example 36, 5-[(1-Benzyl-5-cycloheptylmethyl-1H-imidazole-4-carbonyl)-amino]-isophthalic Acid]	3160
O=C(O)CCNC(=O)c1nc(-c2ccccc2F)[nH]c1CCC12CC3CC(CC(C3)C1)C2 [Example 52, 3-{[5-(2-Adamantan-1-yl-ethyl)-2-(2-fluoro-phenyl)-1H-imidazole-4-carbonyl]-amino}-propionic Acid]	2570
Cc1ccccc1-c1nc(C(=O)Nc2cccc(C(=O)O)c2)c(CC23CC4CC(CC(C4)C2)C3)[nH]1 [Example 170, 3-[(5-Adamantan-1-ylmethyl-2-o-tolyl-1H-imidazole-4-carbonyl)-amino]-benzoic Acid]	1450
Cc1ccccc1-c1nc(C(=O)Nc2cccc(C(=O)O)c2)c(CCC(C)(C)C)[nH]1 [Example 91, 3-{[5-(3,3-Dimethyl-butyl)-2-o-tolyl-1H-imidazole-4-carbonyl]-amino}-benzoic Acid]	3800
O=C(O)c1cccc(NC(=O)c2nc(-c3ccccc3)[nH]c2CCC2CCCCCC2)c1 [Example 38, 3-{[5-(2-Cycloheptyl-ethyl)-2-phenyl-1H-imidazole-4-carbonyl]-amino}-benzoic Acid]	1120
O=C(O)c1cccc(NC(=O)c2nc(C34CC5CC(CC(C5)C3)C4)[nH]c2CCC23CC4CC(CC(C4)C2)C3)c1 [Example 109, 3-{[2-Adamantan-1-yl-5-(2-adamantan-1-yl-ethyl)-1H-imidazole-4-carbonyl]-amino}-benzoic Acid]	44.7
O=C(O)c1cc(NC(=O)c2nc(-c3cccnc3)[nH]c2CC2CCCCCC2)cc(C(=O)O)c1 [Example 32, 5-[(5-Cycloheptylmethyl-2-pyridin-3-yl-1H-imidazole-4-carbonyl)-amino]-isophthalic Acid]	4790
O=C(O)c1cc(NC(=O)c2[nH]c(-c3ccc4ccccc4c3)nc2CC2CCCCCC2)cc(C(=O)O)c1 [Example 20, 5-[(5-Cycloheptylmethyl-2-naphthalen-2-yl-1H-imidazole-4-carbonyl)-amino]-isophthalic Acid]	251
O=C(O)c1cccc(NC(=O)c2nc[nH]c2CCC23CC4CC(CC(C4)C2)C3)c1 [Example 77, 3-{[5-(2-Adamantan-1-yl-ethyl)-1H-imidazole-4-carbonyl]-amino}-benzoic Acid]	10000
Cc1ccccc1-c1nc(C(=O)Nc2cccc(OCC(=O)O)c2)c(CCC23CC4CC(CC(C4)C2)C3)[nH]1 [Example 98, (3-{[5-(2-Adamantan-1-yl-ethyl)-2-o-tolyl-1H-imidazole-4-carbonyl]-amino}-phenoxy)-acetic Acid]	25.1
Cc1ccccc1-c1nc(C(=O)Nc2ccc(CC(=O)O)cc2)c(CCC23CC4CC(CC(C4)C2)C3)[nH]1 [Example 99]	186
Cc1ccc(C(=O)O)cc1NC(=O)c1nc(-c2ccccc2C)[nH]c1CCC12CC3CC(CC(C3)C1)C2 [Example 239, 3-{[5-(2-Adamantan-1-yl-ethyl)-2-o-tolyl-1H-imidazole-4-carbonyl]-amino}-4-methyl-benzoic Acid]	2000
Cc1ccccc1-c1nc(C(=O)N2CCCC(C(=O)O)C2)c(CCC23CC4CC(CC(C4)C2)C3)[nH]1 (racemic) [Example 93, (±)-1-[5-(2-Adamantan-1-yl-ethyl)-2-o-tolyl-1H-imidazole-4-carbonyl]-piperidine-3-carboxylic Acid]	2510
CN(C)c1ccccc1-c1nc(C(=O)Nc2cccc(C(=O)O)c2)c(CCC23CC4CC(CC(C4)C2)C3)[nH]1 [Example 70, 3-{[5-(2-Adamantan-1-yl-ethyl)-2-(2-dimethylamino-phenyl)-1H-imidazole-4-carbonyl]-amino}-benzoic Acid]	245
O=C(Nc1cc(CO)cc(CO)c1)c1[nH]c(-c2ccc3ccccc3c2)nc1CC1CCCCCC1 [Example 22, 5-Cycloheptylmethyl-2-naphthalen-2-yl-1H-imidazole-4-carboxylic Acid (3,5-bis-hydroxymethyl-phenyl)-amide]	4070
Cc1ccccc1-c1cc(C(=O)Nc2cccc(C(=O)O)c2)c(CCC23CC4CC(CC(C4)C2)C3)[nH]1 [Example 123, 3-{[2-(2-Adamantan-1-yl-ethyl)-5-o-tolyl-1H-pyrrole-3-carbonyl]-amino}-benzoic Acid]	204
O=C(O)c1cccc(NC(=O)c2nc(C3CCCCC3)[nH]c2CCc2ccccc2)c1 [Example 88, 3-[(2-Cyclohexyl-5-phenethyl-1H-imidazole-4-carbonyl)-amino]-benzoic Acid]	6610
O=C(Nc1cc(-c2nnn[nH]2)cc(-c2nnn[nH]2)c1)c1nc(-c2ccccc2)[nH]c1CC1CCCCCC1 [Example 25, 5-Cycloheptyimethyl-2-phenyl-1H-imidazole-4-carboxylic Acid [3,5-bis-(1H-tetrazol-5-yl)-phenyl]-amide]	69.2
